Laboratory results as given in ChEMBL document CHEMBL1156443, “Guanidinylated neomycin delivers large, bioactive cargo into cells through a heparan sulfate-dependent pathway” (J Biol Chem, 2007).
The source made the active and inactive calls. The rule behind the calls is not given here.

Tests used:
CHO [1] = assay: Cytotoxicity against CHO pgsA745 mutant cells upto 100 nM after 4 days by Cell-Titer assay; assay type: cell-based, Cricetulus griseus; details: chinese hamster, 96 h
CHO [2] = assay: Cytotoxicity against CHO cells upto 100 nM after 4 days by Cell-Titer assay; assay type: cell-based, Cricetulus griseus; details: chinese hamster, 96 h
CHO [3] = assay: Inhibition of arg9 binding to CHO cells after 1 hr by flow cytometry; assay type: cell-based
CHO [4] = assay: Inhibition of arg9 binding to CHO pgsA745 mutant cells after 1 hr by flow cytometry; assay type: cell-based
[5] = biological target: Fibroblast growth factor 2 (Homo sapiens, UniProt P09038); assay: Binding affinity to biotinylated FGF2 in CHO cells by flow cytometry; assay type: cell-based
Fibroblast growth factor 2, sequence (P09038 143-288 limits assumed): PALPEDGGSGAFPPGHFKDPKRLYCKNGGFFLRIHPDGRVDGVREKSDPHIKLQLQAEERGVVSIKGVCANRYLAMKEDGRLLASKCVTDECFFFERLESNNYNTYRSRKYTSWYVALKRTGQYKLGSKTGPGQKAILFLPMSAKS

Row | IC50 [5] | Compound | Activity (CHO [1]) | Activity (CHO [2]) | Activity (CHO [3]) | Activity (CHO [4])
1 | – | N=C(N)NC[C@@H]1O[C@H](O[C@H]2[C@@H](O)[C@H](O[C@@H]3[C@@H](O)[C@H](NC(=N)N)C[C@H](NC(=N)N)[C@H]3O[C@H]3O[C@H](CNC(=N)N)[C@@H](O)[C@H](O)[C@H]3NC(=N)N)O[C@@H]2CSCCNC(=O)CCCCCNC(=O)CCCC[C@@H]2SCC3NC(=O)NC32)[C@H](NC(=N)N)[C@@H](O)[C@@H]1O (stereo not given in full) | Non-toxic | Non-toxic | – | –
2 | 20 µM | N=C(N)NC[C@@H]1O[C@H](O[C@H]2[C@@H](O)[C@H](O[C@@H]3[C@@H](O)[C@H](NC(=N)N)C[C@H](NC(=N)N)[C@H]3O[C@H]3O[C@H](CNC(=N)N)[C@@H](O)[C@H](O)[C@H]3NC(=N)N)O[C@@H]2CO)[C@H](NC(=N)N)[C@@H](O)[C@@H]1O [GUANIDINONEOMYCIN] | – | – | Active | inactive
